Laboratory results from paper PMC11649115, “In vitro safety evaluation of dopamine D3R antagonist, R-VK4-116, as a potential medication for the treatment of opioid use disorder” (PLOS ONE, 2024).

Tests used:
[1] = Metabolic stability in hepatocyte; details: human, hepatocytes
Description: (§1) CYP3A4 substrate Midazolam (10 μM) was prepared and incubated in the same manner. […] In addition, in vitro half-life (t1/2, min) and intrinsic clearance (CLint, μl/min/10^6 cells) were calculated [10, 11].

human hepatocytes = assay: Metabolic stability in hepatocyte; details: human hepatocytes, 10 μM
Description: as §1

[2] = Metabolic stability in hepatocyte; details: Sprague Dawley, rat, hepatocytes
Description: as §1

rat hepatocytes = assay: Metabolic stability in hepatocyte; details: rat hepatocytes, 10 μM
Description: as §1

[3] = Metabolic stability in hepatocyte; details: Beagle, dog, hepatocytes
Description: as §1

dog hepatocytes = assay: Metabolic stability in hepatocyte; details: dog hepatocytes, 10 μM
Description: as §1

[4] = Stability in the absence of hepatocytes; details: no hepatocytes, 10 μM
Description: as §1

[5] = Metabolic stability in liver microsomes
[6] = Metabolic stability in liver microsomes; remark: listed apart in the source
[7] = Metabolic stability in liver microsomes; details: for % remaining: dog liver microsomes, 10 μM
[8] = Metabolic stability in liver microsomes; details: for % remaining: monkey liver microsomes, 10 μM
HepG2 cells = assay: Mitochondrial toxicity (MT) assay panel; assay type: cell-based; details: HepG2, 100 µM
Description: The assay results were presented as % cell viability. […] After each incubation, the cells were harvested and lysed to test the MT assay panel. The Zalcitabine (positive control) was also included in this assay (Fig 3 in S1 File). The levels of Mitochondrial Oxidative Phosphorylation (OXPHOS) complex 1 (NADH dehydrogenase; ab178011, lot #GR 3339973–1), complex 3 (CytC reductase; ab124537, lot #GR3276896-3), complex 4 (CytC Oxidase; ab179880, lot #GR3273194-1), and complex 5 (ATP synthase; ab124539, lot #GR3267780-4) in the cell lysates were determined using respective indirect ELISA as per manufacturer’s instructions. The total ATP content of the cell lysates was determined using an ATP assay kit (ab83355, lot #GR3314128-2, Abcam, Cambridge, MA). The Caspase 3 content of the cell lysates was determined using the Caspase-3 assay kit (ab39401, lot #GR3322733-1, Abcam, Cambridge, MA). In addition, the total glutathione content was determined using the total glutathione (GSSG/GSH) assay kit (STA-312, lot #09100263, Oxiselect™, San Diego, CA). Using an Oxiselect™ ROS/RNS assay kit (STA-347, lot #7081343, Cell Biolabs Inc. San Diego, CA), the ROS/RNS content of the cell lysates was determined by fluorescence assay.

P-gp = biological target: T1, P-gp (Homo sapiens, UniProt P08183); assay: Transporter mediated assay (substrate/inhibitor), MDCK-II cells; assay type: in vitro ADME; details: human, probe quinidine 0.1 μM
T1 construct: expressed in transfected cells; host or cells: MDCK-II cells
Description: (§2) The MDCK-II cells were treated to express the transporter of interest.
(§3) For BCRP and P-gp, the apparent permeability Papp and Efflux Ratio (ER) were calculated [16]. Net basal (B) to apical (A) flux (B → A) of the substrate transport (pmol/min/cm^2) by BCRP or P-gp was calculated by subtracting A → B flux from B → A flux.

BCRP = biological target: T2, BCRP (Homo sapiens, UniProt Q9UNQ0); assay: as above; assay type: in vitro ADME; details: BCRP, substrate test, 2 µM
T2 construct: expressed in transfected cells; host or cells: MDCK-II cells
T2 sequence (Q9UNQ0 1-655): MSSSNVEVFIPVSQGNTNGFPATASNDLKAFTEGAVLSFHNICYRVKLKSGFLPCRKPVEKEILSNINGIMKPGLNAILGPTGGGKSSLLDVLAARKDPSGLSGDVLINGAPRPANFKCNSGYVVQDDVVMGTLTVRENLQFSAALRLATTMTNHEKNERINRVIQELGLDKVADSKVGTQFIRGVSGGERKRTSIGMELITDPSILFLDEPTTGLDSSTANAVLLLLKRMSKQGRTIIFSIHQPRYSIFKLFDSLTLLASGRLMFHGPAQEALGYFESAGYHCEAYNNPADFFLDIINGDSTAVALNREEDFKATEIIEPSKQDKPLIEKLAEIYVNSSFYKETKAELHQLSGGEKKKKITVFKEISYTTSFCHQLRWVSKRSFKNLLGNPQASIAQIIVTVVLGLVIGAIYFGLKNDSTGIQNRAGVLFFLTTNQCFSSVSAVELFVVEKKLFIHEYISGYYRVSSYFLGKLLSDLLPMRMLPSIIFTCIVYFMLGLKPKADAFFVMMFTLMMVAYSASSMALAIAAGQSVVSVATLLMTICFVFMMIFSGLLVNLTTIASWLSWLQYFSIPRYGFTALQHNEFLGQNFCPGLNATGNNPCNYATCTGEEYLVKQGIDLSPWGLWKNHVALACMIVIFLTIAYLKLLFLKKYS
Description: as §2, §3

T1 sequence (P08183 whole entry): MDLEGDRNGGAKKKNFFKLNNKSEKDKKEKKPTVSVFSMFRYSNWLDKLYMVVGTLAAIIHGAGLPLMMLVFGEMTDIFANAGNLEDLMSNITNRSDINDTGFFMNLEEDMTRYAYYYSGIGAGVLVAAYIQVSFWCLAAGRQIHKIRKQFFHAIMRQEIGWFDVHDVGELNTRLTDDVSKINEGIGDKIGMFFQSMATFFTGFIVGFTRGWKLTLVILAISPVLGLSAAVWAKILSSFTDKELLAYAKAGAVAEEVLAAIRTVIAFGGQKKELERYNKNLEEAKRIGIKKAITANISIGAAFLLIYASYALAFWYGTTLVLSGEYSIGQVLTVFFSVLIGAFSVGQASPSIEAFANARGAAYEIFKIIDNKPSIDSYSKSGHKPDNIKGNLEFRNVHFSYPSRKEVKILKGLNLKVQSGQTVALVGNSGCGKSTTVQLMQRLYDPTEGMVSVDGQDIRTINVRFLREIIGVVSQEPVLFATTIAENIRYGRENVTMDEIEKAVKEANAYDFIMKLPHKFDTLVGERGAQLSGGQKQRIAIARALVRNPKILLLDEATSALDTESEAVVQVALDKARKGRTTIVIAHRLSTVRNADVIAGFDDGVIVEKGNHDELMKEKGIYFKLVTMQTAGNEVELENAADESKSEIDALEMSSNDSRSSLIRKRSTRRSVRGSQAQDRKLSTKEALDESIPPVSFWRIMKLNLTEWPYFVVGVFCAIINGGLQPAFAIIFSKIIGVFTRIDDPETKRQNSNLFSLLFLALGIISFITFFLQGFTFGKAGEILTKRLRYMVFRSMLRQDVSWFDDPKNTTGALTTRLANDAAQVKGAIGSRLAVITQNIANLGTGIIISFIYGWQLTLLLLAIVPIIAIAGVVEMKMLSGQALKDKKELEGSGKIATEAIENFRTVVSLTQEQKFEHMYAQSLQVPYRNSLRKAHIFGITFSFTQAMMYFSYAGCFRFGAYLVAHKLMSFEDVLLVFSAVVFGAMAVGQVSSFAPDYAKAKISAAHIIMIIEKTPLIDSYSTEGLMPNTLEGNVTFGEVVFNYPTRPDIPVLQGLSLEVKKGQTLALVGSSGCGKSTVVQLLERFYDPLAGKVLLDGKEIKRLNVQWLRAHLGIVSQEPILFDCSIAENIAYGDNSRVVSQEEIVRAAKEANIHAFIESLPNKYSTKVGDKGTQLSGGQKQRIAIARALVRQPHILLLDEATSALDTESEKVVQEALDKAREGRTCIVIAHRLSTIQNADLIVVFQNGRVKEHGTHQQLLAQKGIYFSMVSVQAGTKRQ

## Cc1ncc2n1-c1ccc(Cl)cc1C(c1ccccc1F)=NC2 [Midazolam, reference compound]
[1]
  half-life at 10 μM: 4.45 h
  hepatocyte CLint at 10 μM: 5.2 µL/min/1e6 cells
Human hepatocytes; 0 min
  % remaining Vs T = 0 min: 100.0%
Human hepatocytes; 30 min
  % remaining Vs T = 0 min: 91.7%
Human hepatocytes; 60 min
  % remaining Vs T = 0 min: 85.3%
Human hepatocytes; 90 min
  % remaining Vs T = 0 min: 80.7%
Human hepatocytes; 120 min
  % remaining Vs T = 0 min: 72.4%
[2]
  half-life at 10 μM: 3.22 h
  hepatocyte CLint at 10 μM: 7.2 µL/min/1e6 cells
Rat hepatocytes; 0 min
  % remaining Vs T = 0 min: 100.0%
Rat hepatocytes; 30 min
  % remaining Vs T = 0 min: 89.0%
Rat hepatocytes; 60 min
  % remaining Vs T = 0 min: 77.8%
Rat hepatocytes; 90 min
  % remaining Vs T = 0 min: 70.5%
Rat hepatocytes; 120 min
  % remaining Vs T = 0 min: 65.7%
[3]
  half-life at 10 μM: 0.855 h
  hepatocyte CLint at 10 μM: 27 µL/min/1e6 cells
Dog hepatocytes; 0 min
  % remaining Vs T = 0 min: 100.0%
Dog hepatocytes; 30 min
  % remaining Vs T = 0 min: 66.6%
Dog hepatocytes; 60 min
  % remaining Vs T = 0 min: 50.8%
Dog hepatocytes; 90 min
  % remaining Vs T = 0 min: 31.2%
Dog hepatocytes; 120 min
  % remaining Vs T = 0 min: 19.5%
[4]; 0 min
  % remaining Vs T = 0 min: 100.0%
[4]; 30 min
  % remaining Vs T = 0 min: 97.7%
[4]; 60 min
  % remaining Vs T = 0 min: 97.6%
[4]; 90 min
  % remaining Vs T = 0 min: 98.6%
[4]; 120 min
  % remaining Vs T = 0 min: 98.5%
[5]; human liver microsomes, 10 μM, 120 min
  % remaining: 0.0%
[5]; human, microsomes, pH 7.4
  remaining at 0 h, 10 μM: 100%
  remaining at 0.5 h, 10 μM: 9.7%
  remaining at 1 h, 10 μM: 1%
  remaining at 1.5 h, 10 μM: 0.2%
  remaining at 2 h, 10 μM: 101%
[6]; rat liver microsomes, 10 μM, 120 min
  % remaining: 0.0%
[6]; rat, microsomes, pH 7.4
  remaining at 0 h, 10 μM: 100%
  remaining at 0.5 h, 10 μM: 5.8%
  remaining at 1 h, 10 μM: 0.4%
  remaining at 1.5 h, 10 μM: 0.1%
  remaining at 2 h, 10 μM: 102%
[7]; 90 min
  % remaining: 0.0%
[7]; 120 min
  % remaining: 0.0%
[7]; dog, microsomes, pH 7.4
  remaining at 0 h, 10 μM: 100%
  remaining at 0.5 h, 10 μM: 0.3%
  remaining at 1 h, 10 μM: 0.1%
  remaining at 2 h, 10 μM: 95.8%
[8]; 60 min
  % remaining: 0.0%
[8]; 90 min
  % remaining: 0.0%
[8]; 120 min
  % remaining: 0.0%
[8]; monkey, microsomes, pH 7.4
  remaining at 0 h, 10 μM: 100%
  remaining at 0.5 h, 10 μM: 0.1%
  remaining at 2 h, 10 μM: 91.8%

## Nc1ccn([C@H]2CC[C@@H](CO)O2)c(=O)n1 [zalcitabine]
HepG2 cells; 2-week
  OXPHOS 5 and total ATP levels, caspase 3 or ROS/RNS levels: No significant decrease
  decrease in OXPHOS 1: ~ 80%
  decrease in OXPHOS 3: ~ 20%
  decrease in OXPHOS 4: ~ 70%
HepG2 cells; two weeks
  increase in total glutathione content: ~ 35%

## COc1cc2c(cc1OC)CN(CCc1ccc(NC(=O)c3cccc4c(=O)c5cccc(OC)c5[nH]c34)cc1)CC2 [elacridar]
P-gp
  inhibition at 3 μM: 98.4 ± 0.53%

## COc1cc2nc(N3CCN(C(=O)c4ccco4)CC3)nc(N)c2cc1OC [prazosin, reference compound]
BCRP
  Papp A→B at 2 µM: 8.06 ± 0.76 ×10⁻⁶ cm/s
  Papp B→A at 2 µM: 47.7 ± 2.77 ×10⁻⁶ cm/s
